Laboratory results from patent US20210299059A1, “INJECTABLE PHARMACEUTICAL COMPOSITION AND PREPARATION METHOD THEREFOR” (Jiangsu Hengrui Medicine CO., LTD., priority 2018, published 2021).

Legend:
[1] = cited from earlier work
[2] = Pharmacokinetics study, subcutaneous apixaban injection (Embodiment 4); format: in vivo, humans; settings: human, plasma, sc, 2.5 mg, plasma drug concentration of apixaban, 1 mL of 2.5 mg/mL apixaban injection subcutaneously
[3] = cited from earlier work; remark: listed apart in the source

concentration at 0 h ([2]; Mean of three subjects): 0 ng/mL
concentration at 0.25 h ([2]; Mean of three subjects): 6.19 ng/mL
concentration at 0.5 h ([2]; Mean of three subjects): 14.5 ng/mL
concentration at 1 h ([2]; Mean of three subjects): 27.1 ng/mL
concentration at 2 h ([2]; Mean of three subjects): 40.6 ng/mL
concentration at 3 h ([2]; Mean of three subjects): 47.3 ng/mL
concentration at 4 h ([2]; Mean of three subjects): 51.2 ng/mL
concentration at 5 h ([2]; Mean of three subjects): 43.4 ng/mL
concentration at 6 h ([2]; Mean of three subjects): 41.6 ng/mL
concentration at 8 h ([2]; Mean of three subjects): 39.3 ng/mL
concentration at 10 h ([2]; Mean of three subjects): 32.2 ng/mL
concentration at 16 h ([2]; Mean of three subjects): 21.2 ng/mL
concentration at 24 h ([2]; Mean of three subjects): 13.8 ng/mL
concentration at 0 h ([2]; subject C-01): 0 ng/mL
concentration at 0.25 h ([2]; subject C-01): 8.08 ng/mL
concentration at 0.5 h ([2]; subject C-01): 18.2 ng/mL
concentration at 1 h ([2]; subject C-01): 35.8 ng/mL
concentration at 2 h ([2]; subject C-01): 52 ng/mL
concentration at 3 h ([2]; subject C-01): 62.1 ng/mL
concentration at 4 h ([2]; subject C-01): 68.8 ng/mL
concentration at 5 h ([2]; subject C-01): 52.4 ng/mL
concentration at 6 h ([2]; subject C-01): 48.8 ng/mL
concentration at 8 h ([2]; subject C-01): 46.7 ng/mL
concentration at 10 h ([2]; subject C-01): 37.6 ng/mL
concentration at 16 h ([2]; subject C-01): 22.8 ng/mL
concentration at 24 h ([2]; subject C-01): 14.3 ng/mL
concentration at 0 h ([2]; subject C-02): 0 ng/mL
concentration at 0.25 h ([2]; subject C-02): 5.36 ng/mL
concentration at 0.5 h ([2]; subject C-02): 14.3 ng/mL
concentration at 1 h ([2]; subject C-02): 23.8 ng/mL
concentration at 2 h ([2]; subject C-02): 37.9 ng/mL
concentration at 3 h ([2]; subject C-02): 43.2 ng/mL
concentration at 4 h ([2]; subject C-02): 44.8 ng/mL
concentration at 5 h ([2]; subject C-02): 38.1 ng/mL
concentration at 6 h ([2]; subject C-02): 40.4 ng/mL
concentration at 8 h ([2]; subject C-02): 33.4 ng/mL
concentration at 10 h ([2]; subject C-02): 28.9 ng/mL
concentration at 16 h ([2]; subject C-02): 19.2 ng/mL
concentration at 24 h ([2]; subject C-02): 11.4 ng/mL
concentration at 0 h ([2]; subject C-03): 0 ng/mL
concentration at 0.25 h ([2]; subject C-03): 5.13 ng/mL
concentration at 0.5 h ([2]; subject C-03): 10.9 ng/mL
concentration at 1 h ([2]; subject C-03): 21.7 ng/mL
concentration at 2 h ([2]; subject C-03): 31.9 ng/mL
concentration at 3 h ([2]; subject C-03): 36.6 ng/mL
concentration at 4 h ([2]; subject C-03): 40 ng/mL
concentration at 5 h ([2]; subject C-03): 39.7 ng/mL
concentration at 6 h ([2]; subject C-03): 35.5 ng/mL
concentration at 8 h ([2]; subject C-03): 37.6 ng/mL
concentration at 10 h ([2]; subject C-03): 30.1 ng/mL
concentration at 16 h ([2]; subject C-03): 21.6 ng/mL
concentration at 24 h ([2]; subject C-03): 15.8 ng/mL
SMILES: COc1ccc(-n2nc(C(N)=O)c3c2C(=O)N(c2ccc(N4CCCCC4=O)cc2)CC3)cc1 [apixaban, Apixaban]
ionization ([1]; at physiological pH (1.2 to 6.8)): not ionized
LogP [1]: 3.53
solubility ([1]; in the physiological pH range (1.2 to 6.8)): about 0.04 mg/ml
oral bioavailability [3]: approximately 50%
